Experiments:
[1] = target: T1, Androgen receptor of prostate of rats (Rattus norvegicus, UniProt P15207); assay: Androgen receptor binding (displacement of tritiated product P)
T1 construct: The prostates were removed, weighed and homogenized at 0° C; from tissue; host or cells: rat prostate, 105,000 g supernatant (castrated male Sprague-Dawley rats)
T1 sequence (P15207 1-902): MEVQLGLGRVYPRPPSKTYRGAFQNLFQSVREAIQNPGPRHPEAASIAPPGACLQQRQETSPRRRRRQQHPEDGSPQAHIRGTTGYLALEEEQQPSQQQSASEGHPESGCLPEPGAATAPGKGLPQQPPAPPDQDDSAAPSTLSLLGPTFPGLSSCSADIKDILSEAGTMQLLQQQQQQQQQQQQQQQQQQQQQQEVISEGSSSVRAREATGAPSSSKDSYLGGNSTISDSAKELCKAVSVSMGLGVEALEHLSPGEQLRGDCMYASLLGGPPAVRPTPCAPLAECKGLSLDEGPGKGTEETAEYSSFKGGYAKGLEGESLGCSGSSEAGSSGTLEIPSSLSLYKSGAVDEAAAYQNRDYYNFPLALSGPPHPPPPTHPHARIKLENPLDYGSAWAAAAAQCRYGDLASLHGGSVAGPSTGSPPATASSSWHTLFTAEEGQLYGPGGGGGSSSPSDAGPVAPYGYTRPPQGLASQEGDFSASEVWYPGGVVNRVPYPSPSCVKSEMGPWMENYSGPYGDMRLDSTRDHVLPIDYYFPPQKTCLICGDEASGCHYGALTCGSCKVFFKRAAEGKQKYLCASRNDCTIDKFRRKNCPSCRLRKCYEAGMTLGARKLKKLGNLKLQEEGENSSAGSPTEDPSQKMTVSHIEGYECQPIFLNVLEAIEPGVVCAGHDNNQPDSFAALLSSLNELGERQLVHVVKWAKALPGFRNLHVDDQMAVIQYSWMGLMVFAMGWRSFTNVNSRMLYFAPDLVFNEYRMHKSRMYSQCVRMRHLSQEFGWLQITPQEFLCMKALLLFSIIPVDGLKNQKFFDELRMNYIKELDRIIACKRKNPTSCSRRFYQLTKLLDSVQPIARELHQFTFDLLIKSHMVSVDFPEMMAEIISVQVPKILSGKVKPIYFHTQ
Method: B. Androgen receptor of prostate of rats
Male Sprague-Dawley EPOS rats weighing of 160 to 200 g were castrated and 24 hours later, the animals were killed. The prostates were removed, weighed and homogenized at 0° C. with a polytetrafluoroethylene-glass Potter with a buffered TS solution (Tris, 10 mM, 0.25M Saccharose, HCl-pH of 7.4) using 1 g of tissue per 5 ml of TS. The homogenate was then ultracentrifuged at 105,000 g for 60 […] (T) of product P or 17α-methyl-Δ^4,9,11 -estratriene-17β-ol-3-one in the presence of increasing concentration (0-1,000×10^-9 M) of either cold P, cold testosterone or the test compound. The concentration of tied tritiated (B) was measured for each incubate by the technique of adsorption on carbon-dextran.
(§1) The calculation of the relative affinity of […] (ARL) was identical for all of the above receptor tests. One traced the following two curves: the percentage of tied tritiated hormone B/T as a function of the logarithm of the cold hormone concentration and B/T as a function of the logarithm of the concentration of the cold test product. One determined the line of the equation. [formula]
(§2) The intersection of the I50 line and the curves permits one to determine the concentrations of the cold hormone of the reference (CH) and the cold test compound (CX) which inhibit by 50% the tieing of tritiated hormone with the receptor. The relative affinity of tieing (ARL) of the test product was determined by the equation: [formula]

[2] = target: T2, Gluocorticoid receptor of thymus of rats (Rattus norvegicus, UniProt P06536); assay: Glucocorticoid receptor binding (displacement of tritiated dexamethasone); conditions: incubation 4 H at 0° C.
T2 construct: The thymus were removed and homogenized at 0° C; from tissue; host or cells: rat thymus, 105,000 g supernatant (adrenalectomized male Sprague-Dawley rats)
T2 sequence (P06536 1-795): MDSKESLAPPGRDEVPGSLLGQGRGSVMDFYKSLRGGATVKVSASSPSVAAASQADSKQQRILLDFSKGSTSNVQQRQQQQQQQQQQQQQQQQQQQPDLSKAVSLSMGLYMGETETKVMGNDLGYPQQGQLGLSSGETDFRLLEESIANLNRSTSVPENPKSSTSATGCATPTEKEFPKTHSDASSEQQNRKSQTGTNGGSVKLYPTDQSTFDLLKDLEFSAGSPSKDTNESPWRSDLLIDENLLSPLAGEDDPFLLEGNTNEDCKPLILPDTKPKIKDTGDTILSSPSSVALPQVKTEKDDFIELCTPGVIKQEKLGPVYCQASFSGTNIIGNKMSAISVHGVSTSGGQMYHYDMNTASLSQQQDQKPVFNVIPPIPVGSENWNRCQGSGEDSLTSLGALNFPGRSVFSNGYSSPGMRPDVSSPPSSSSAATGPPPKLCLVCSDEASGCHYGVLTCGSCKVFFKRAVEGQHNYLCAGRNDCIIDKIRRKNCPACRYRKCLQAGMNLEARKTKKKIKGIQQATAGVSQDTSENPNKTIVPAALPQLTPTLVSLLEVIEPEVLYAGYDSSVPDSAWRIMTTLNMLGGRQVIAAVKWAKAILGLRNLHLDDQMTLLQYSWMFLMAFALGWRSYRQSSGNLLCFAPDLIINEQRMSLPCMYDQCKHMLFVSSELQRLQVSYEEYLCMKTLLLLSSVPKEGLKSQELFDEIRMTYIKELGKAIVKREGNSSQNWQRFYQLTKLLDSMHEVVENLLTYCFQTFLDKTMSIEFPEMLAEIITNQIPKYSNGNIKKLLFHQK
Method: D. Gluocorticoid receptor of thymus of rats
Male Sprague-Dawley EPOS rats weighing 160 to 200 g were surrenalectomized and the animals were killed 4 to 8 days later. The thymus were removed and homogenized at 0° C. in a buffered TS solution of 10 mM, Tris, 0.25M of Saccharose, 2 mM of dithiothreitol HCl for a pH of 7.4 using a polytetrafluoroethylene-glass Potter at a rate of 1 g of tissue per 10 ml of TS. […] The concentration of tied tritiated dexamethasone (B) was measured for each incubate by the adsorption on carbon-dextran technique.
as §1, §2

[3] = target: T3, Estrogen receptor of uterus of mice (Mus musculus, UniProt P19785); assay: Estrogen receptor binding (displacement of tritiated estradiol); conditions: for agonist or antagonistic activity to estrogens: concluded from receptor affinity
T3 construct: the uterus were removed and homogenized at 0° C; from tissue; host or cells: mouse uterus, 105,000 g supernatant (immature females 18 to 21 days old)
T3 sequence (P19785 1-599): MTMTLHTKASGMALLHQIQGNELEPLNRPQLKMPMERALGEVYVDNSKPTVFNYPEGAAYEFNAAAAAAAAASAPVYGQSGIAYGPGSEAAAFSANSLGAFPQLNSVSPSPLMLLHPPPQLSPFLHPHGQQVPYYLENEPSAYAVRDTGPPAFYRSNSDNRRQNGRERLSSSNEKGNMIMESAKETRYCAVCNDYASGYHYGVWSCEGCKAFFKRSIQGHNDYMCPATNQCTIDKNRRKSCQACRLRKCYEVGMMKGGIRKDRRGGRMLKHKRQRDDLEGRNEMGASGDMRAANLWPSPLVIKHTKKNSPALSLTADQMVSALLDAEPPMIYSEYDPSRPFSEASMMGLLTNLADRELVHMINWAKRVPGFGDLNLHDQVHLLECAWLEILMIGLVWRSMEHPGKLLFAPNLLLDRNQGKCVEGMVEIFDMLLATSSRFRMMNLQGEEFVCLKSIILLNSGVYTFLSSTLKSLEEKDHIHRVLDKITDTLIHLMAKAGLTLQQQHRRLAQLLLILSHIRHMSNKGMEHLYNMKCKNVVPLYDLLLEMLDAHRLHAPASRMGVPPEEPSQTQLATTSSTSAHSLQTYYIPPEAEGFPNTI
Method: E. Estrogen receptor of uterus of mice
Immature female mice 18 to 21 days old were killed and the uterus were removed and homogenized at 0° C. with a polytetrafluoroethylene-glass Potter in a buffered TS solution consisting of 10 mM, Tris, 0125M Saccharose, HCl for a pH of 7.4 at a rate of 1 g of tissue per 25 ml of TS. The homogenate was then ultracentrigued at 105,000 g for 90 minutes at 0° C. and aliquoits of the resulting […] were incubated at 0° C. for a time (t) with a constant concentration (T) of tritiated estradiol in the presence of increasing concentrations (0 to 1000×10^-9 M) of either cold estradiol or cold test compound. The concentration of tied tritiated estradiol (B) was measured for each incubate by the technique of adsorption on carbon-dextran.
as §1, §2

uterine endometrium [4] = assay: Progestomimetic activity, oral, change in uterine endometrium (McPhail); type: in vivo, immature female rabbits; conditions: progesterone 0.2 mg/kg subcutaneously
Method: (§3) IV. Progestomimetic and Anti-progestomimetic Activity
(§4) a) Groups of immature female rabbits weighing about 1 kg had administered to them subcutaneously from day 1 to day 5, 5 μg of estradiol. The product tested was afterward administered orally from day 8 to day 11 in a volume of 0.5 cm^3 of water containing 0.5% of carboxymethyl cellulose and 0.2% of Tween. On day 12, the rabbits were sacrificed, their uteruses were retained and fixed in Bouin's solution and histologically studied.
(§5) The changes in the uterine endometrium were noted according to the method of McPhail.

uterine endometrium [5] = assay: Anti-progestomimetic activity versus progesterone, oral, change in uterine endometrium (McPhail); type: in vivo, immature female rabbits; conditions: progesterone 0.2 mg/kg subcutaneously, alone
Method: as §3, §4, §5

uterine endometrium [6] = assay: Anti-progestomimetic activity versus progesterone, intrauterine, change in uterine endometrium (McPhail); type: in vivo, immature female rabbits; conditions: progesterone alone 10 μg/rabbit, method of McPhail
Method: Groups of three immature female rabbits weighing about 1 kg were topically treated on the dorsal skin with 25 μg of estradiol in 10 μl of ethanol on day 1. On day 4 the product to be tested dissolved in 0.1 ml, of sesame oil containing 5% benzyl alcohol was introduced into a part of the uterus isolated between two ligatures. On the sixth day the animals were sacrificed, their uteruses retained and fixed in Bouin's solution for histological examination. Changes in the uterine endometrium were noted after the method of McPhail.

**Q.** `CN(C)CCOc1ccc2c(c1)CC[C@@H]1[C@@H]2[C@@H](c2ccccc2)C[C@]2(C)[C@@H](O)CC[C@@H]12` [Example 15, 3-(2-dimethylamino-ethoxy)-11β-phenyl-Δ^1,3,5(10) -estratriene-17β-ol] was tested. Which “relative affinity of tieing (ARL), Androgen” value (“relative affinity … Androgen” for short) ([1]; incubation 1/2H at 0° C.) did it give?
**A.** Its value is 1,3.

**Q.** And the “relative affinity … Androgen” value ([1]; incubation 24 H at 0° C.)?
**A.** Its value is 0,2.

**Q.** What about the “relative affinity of tieing (ARL), Glucocorticoid” value [2] of the same compound?
**A.** The value was 2.

**Q.** What about the “relative affinity of tieing (ARL), Estrogen” value (shortened to “relative affinity … Estrogen”) ([3]; incubation 2 H at 0° C.) of the same compound?
**A.** The value was 0,1.

**Q.** And the “relative affinity … Estrogen” value ([3]; incubation 5 H (25° C.))?
**A.** Its value is 0,1.

**Q.** Which results are given for `CC(=O)[C@H]1CC[C@H]2[C@@H]3CCC4=CC(=O)CC[C@]4(C)[C@H]3CC[C@]12C` [Progesterone, progesterone, reference compound]?
**A.** CHANGE IN THE ENDOMETRIUM (uterine endometrium [4]): 3.2 McPHAIL UNTS; CHANGE IN THE ENDOMETRIUM (uterine endometrium [5]): 3.0 McPHAIL UNTS; CHANGE IN THE ENDOMETRIUM (uterine endometrium [6]): 2.7

**Q.** Which results are given for `CN(C)CCOc1ccc([C@H]2C[C@]3(C)[C@@H](O)CC[C@H]3[C@@H]3CCc4ccccc4[C@H]32)cc1` [Example 14, 11β-[4-(2-dimethylaminoethoxy)-phenyl]-Δ^1,3,5(10) -estratriene-17β-ol]?
**A.** relative affinity of tieing (ARL), Androgen ([1]; incubation 1/2H at 0° C.): 10,6; relative affinity of tieing (ARL), Androgen ([1]; incubation 24 H at 0° C.): 0,5; relative affinity of tieing (ARL), Glucocorticoid [2]: 0,4; agonist or antagonistic activity to estrogens [3]: present an agonist or antagonistic activity to estrogens; relative affinity of tieing (ARL), Estrogen ([3]; incubation 2 H at 0° C.): 4,1; relative affinity of tieing (ARL), Estrogen ([3]; incubation 5 H (25° C.)): 1,4

**Q.** For `CN(C)CCOc1ccc([C@H]2C[C@]3(C)[C@@H](O)CC[C@H]3[C@@H]3CCc4cc(O)ccc4[C@H]32)cc1` [Example 13, 11β-[4-(2-dimethylaminoethoxy)-phenyl]-Δ^1,3,5(10) -estratriene-3,17β-diol], which “relative affinity … Androgen” value ([1]; incubation 1/2H at 0° C.) is on record?
**A.** The value was 5.

**Q.** And the “relative affinity … Androgen” value ([1]; incubation 24 H at 0° C.)?
**A.** Its value is 6.

**Q.** And the “relative affinity of tieing (ARL), Glucocorticoid” value [2]?
**A.** Its value is 3,9.

**Q.** What about the “agonist or antagonistic activity to estrogens” value [3] of the same compound?
**A.** Its value is “present an agonist or antagonistic activity to estrogens”.

**Q.** What about the “relative affinity … Estrogen” value ([3]; incubation 2 H at 0° C.) of the same compound?
**A.** Its value is 78.

**Q.** And the “relative affinity … Estrogen” value ([3]; incubation 5 H (25° C.))?
**A.** Its value is 239.

Source: patent US5043332A, “Novel 11β-substituted -19-nor-steriods” (priority 1981, dated 1991)
